Reference: patent US20250346903A1, “USE OF CONJUGATES OF MICRORNA AND CARDIAC TARGETING PEPTIDES FOR TREATING HEART FAILURE” (Georgetown University, priority 2022, published 2025)

What was measured:
PKC = PKC localization in HCMs (anti-PKCα staining); format: cell-based, human; conditions: PMA 30 minutes
From the text: One potential mechanism of increased PLCβ1 expression is increased PKC activity. Thus, PKC localization was studied in treated HCMs. […] In HCMs treated with Ang2/PE, PKC was translocated to the plasma membrane (FIG. 12, Panel C).

Connexin 43 (CNX43) = assay: CNX43 phosphorylation in HCMs (immunostaining); format: cell-based, human; conditions: HCMs treated with PMA as a control
Experimental: Gap junction protein Connexin 43 (CNX43) is a known downstream target of PKC activity in cardiomyocytes. Thus, the effects of Ang2/PE and the CTP-microRNA106a on CNX43 in HCMs were studied. CNX43 is phosphorylated on serine 386 by PKCα. In untreated HCMs, gap junctions are prevalent (FIG. 14, Panel A), although only a few junctions are positive for phosphorylation of CNX43 (FIG. 14, Panel B). […] Phosphorylated CNX43 becomes widespread as HCMs are treated with Ang2/PE for 24 hours (FIG. 14, Panels E and F).

NfκB response element = NfκB response element luciferase assay in HCMs; format: cell-based, human; conditions: Ang2/PE 24 hours, miRNAs transfected
From the text: Once in the nucleus NfκB binds to an NfκB response element to initiate transcription of downstream genes. To study how the CTP-miRNA106a conjugate can impact this effect, a plasmid containing an NfκB response element driving luciferase production (Promega, Inc) was used to generate HCMs expressing this NfκB luciferase response element. […] Moreover, the effect of miRNA106a on impacting Ang2/PE-induced luciferase expression in HCMs was compared to miRNA17, miRNA20a, and miRNA93.

CaMKIIδ = assay: Western blot of CaMKIIδ in PE/Ang2-treated HCMs; format: cell-based, human; conditions: 200 nM miRNA transfected, within 72 hours
Experimental: (§1) Human cardiomyocytes (HCMs) were subjected to 200 nM phenylephrine (PE) and 10 nM angiotensin 2 (Ang2) to induce hypertrophy (initial stages of heart failure). The HCMs were treated with PE/Ang2 for 24, 48, 72, 96, or 144 hours. Using TransIT-X2 transfection reagent, 200 nM of each miRNA, or in combination, was introduced into PE/Ang2-treated HCMs, followed by analyses of hypertrophic morphology and heart failure gene/protein expression.
(§2) The CTP-miRNA106a conjugate suppressed translation of each protein, as confirmed in three separate experiments. A significant difference was observed between each of the CTP-miRNA106a conjugate-treated set and PE/Ang2-treated HCMs after 144 hours, and no significant difference was observed between each of the CTP-miRNA106a conjugate-treated HCMs and untreated HCMs.

HDAC4 [1] = assay: Western blot of HDAC4 in PE/Ang2-treated HCMs; format: cell-based, human; conditions: 200 nM miRNA transfected, within 72 hours
Experimental: as §1, §2

GRK2 = assay: Western blot of GRK2 in PE/Ang2-treated HCMs; format: cell-based, human; conditions: HCMs PE/Ang2 72 hours, then miRNA transfection
Experimental: The effects of miRNA17, miRNA20a, miRNA93, and miRNA106a on GRK2 signaling were assessed in HCMs treated with PE/Ang2. GRK2 has been identified to cause heart failure when mis-expressed.
The HCMs were subjected to 72 hours of PE/Ang2 treatment, and were subsequently treated with miRNA17, miRNA20a, miRNA93, or miRNA106a, or with the CTP-miRNA106a conjugate.

3′UTR of PLCβ1 = assay: PLCβ1 3′UTR luciferase assay in HEK293 cells; format: cell-based, human; conditions: miRNA transfected 24 hours after plasmid
GRK2 3′UTR = assay: 3′UTR-luciferase assay, GRK2 (control); format: cell-based, human; conditions: miRNA106a with transfection reagent; control without target sequence
IL-1β = assay: FACS of IL-1β expressing HCMs; format: cell-based, human; conditions: miR106a (without CTP) transfected, then Ang2/PE
From the text: (§3) To identify if activation of the NfκB pathway by Ang2/PE led to expression of genes that augment hypertrophy and heart failure, HCMs treated with Ang2/PE or treated with both Ang2/PE and the CTP-miRNA106a conjugated were compared to untreated control HCMs by FACS. […] In summary, the CTP-miRNA106a conjugated suppressed NfκB signaling activated by Ang2/PE.

HDAC4 3′UTR = assay: 3′UTR-luciferase assay, HDAC4; format: cell-based, human; conditions: miRNA106a with transfection reagent
[2] = tested on: Human cardiomyocytes (HCMs); assay: Hypertrophic morphology / cell size of PE/Ang2-treated HCMs; format: cell-based; conditions: 200 nM transfection, 72 hours, no PE/Ang2
Experimental: as §1
(§4) HDAC4 localization was also rescued by the CTP-miRNA106a conjugate. HDAC4 is nuclear in untreated HCMs (see FIG. 4, Panel C), but CaMKIIδ phosphorylation promotes HDAC4 movement into the cytoplasm (see FIG. 4, Panel D) (Hohl et al., 2013).

CaMKIIδ 3′UTR = assay: 3′UTR-luciferase assay, CaMKIIδ; format: cell-based, human; conditions: miRNA106a with transfection reagent
IL-6 = assay: FACS of IL-6 expressing HCMs; format: cell-based, human; conditions: miR106a transfected, then Ang2/PE
From the text: as §3

HDAC4 [3] = assay: HDAC4 localization by immunofluorescence in HCMs; format: cell-based, human; conditions: HCMs PE/Ang2 72 hours, treatment 24 hours
From the text: as §4

HCMs = assay: Mitochondrial membrane potential, JC-1 staining of HCMs; format: cell-based, human; conditions: 200 nM miRNA106a transfected, 72 hours
Experimental: The effects of miRNA106a on mitochondrial health was assessed using the mitochondrial membrane potential (MMP) probe JC-1 staining. Healthy MMP is observed as JC-1 forms J-aggregates that fluoresce red (˜594 nm) while unhealthy MMP is recognized as green (˜488 nm) JC-1 monomers.

TNF-α = assay: FACS of TNF-α expressing HCMs; format: cell-based, human; conditions: miR106a transfected, then Ang2/PE
From the text: as §3

CCCCCCCCCCCCCC(=O)O[C@@H]1[C@@H](C)[C@@]2(O)[C@@H](C=C(CO)C[C@]3(O)C(=O)C(C)=C[C@@H]23)[C@@H]2C(C)(C)[C@]12OC(C)=O [PMA, phorbal myristate acetate]
PKC localization (PKC): localized to the plasma membrane
phosphorylated CNX43 (Connexin 43 (CNX43)): the phosphorylation patterns are more robust

miRNA17: microRNA, RNA sequence CAAAGUGCUUACAGUGCAGGUAG (SEQ ID NO 2) (listed as RNA, chemistry not given here)
NfκB response element luciferase expression (NfκB response element): suppressed luciferase expression significantly
CaMKIIδ overexpression induced by PE/Ang2 (CaMKIIδ): suppressed
HDAC4 overexpression induced by PE/Ang2 (HDAC4 [1]): suppressed
GRK2 expression (GRK2): returned to baseline levels

miRNA20a: microRNA, RNA sequence UAAAGUGCUUAUAGUGCAGGUAG (SEQ ID NO 3) (listed as RNA, chemistry not given here)
NfκB response element luciferase expression (NfκB response element): lowered luciferase expression
CaMKIIδ overexpression induced by PE/Ang2 (CaMKIIδ): suppressed
HDAC4 overexpression induced by PE/Ang2 (HDAC4 [1]): suppressed
GRK2 expression (GRK2): returned to baseline levels

miRNA93: microRNA, RNA sequence CAAAGUGCUGUUCGUGCAGGUAG (SEQ ID NO 4) (listed as RNA, chemistry not given here)
NfκB response element luciferase expression (NfκB response element): lowered luciferase expression
CaMKIIδ overexpression induced by PE/Ang2 (CaMKIIδ): suppressed
decrease of luciferase activity (3′UTR of PLCβ1): ~50%
HDAC4 overexpression induced by PE/Ang2 (HDAC4 [1]): suppressed
GRK2 expression (GRK2): returned to baseline levels

miRNA106a: microRNA, RNA sequence AAAAGUGCUUACAGUGCAGGUAG (SEQ ID NO 1) (chemistry not given here)
NfκB response element luciferase expression (NfκB response element): suppressed luciferase expression significantly
GRK2 3′UTR luciferase expression (GRK2 3′UTR): no change in luciferase expression
IL-1β expression (IL-1β): reversal of IL-1ß expression back to normal, untreated levels
CaMKIIδ overexpression induced by PE/Ang2 (CaMKIIδ): suppressed
decrease of luciferase activity (3′UTR of PLCβ1): ~80%
HDAC4 3′UTR luciferase expression (HDAC4 3′UTR): targets the 3′UTRs of both CaMKIIδ and HDAC4
HDAC4 overexpression induced by PE/Ang2 (HDAC4 [1]): suppressed
GRK2 expression (GRK2): returned to baseline levels
growth in size (hypertrophy) in response to miRNA106a alone [2]: did not appear to grow in size
CaMKIIδ 3′UTR luciferase expression (CaMKIIδ 3′UTR): targets the 3′UTRs of both CaMKIIδ and HDAC4
IL-6 expression (IL-6): very similar results as IL-1β
HDAC4 localization (HDAC4 [3]): HDAC4 re-entry into the nucleus
JC-1 red:green ratio versus untreated (HCMs): no significant difference in red:green ratios
TNF-α expression (TNF-α): very similar results as IL-1β
